Species: Rattus norvegicus
Assay: DrugMatrix - Regimen: Daily Repeat
Assay type: toxicity, organism-based, Sprague-Dawley
Parameters: regimen Daily Repeat, gender Male, age 6-8 weeks
Details: in vivo, po, route oral GAVAGE, […]; for ABSOLUTE BASOPHIL / ABSOLUTE EOSINOPHIL / ABSOLUTE LYMPHOCYTE / ABSOLUTE MONOCYTE / ABSOLUTE SEGMENTED NEUTROPHIL / BASOPHIL / EOSINOPHIL / ERYTHROCYTE COUNT / HEMATOCRIT / HEMOGLOBIN / LEUKOCYTE COUNT / LYMPHOCYTE / MEAN CORPUSCULAR HEMOGLOBIN / MEAN CORPUSCULAR HEMOGLOBIN CONCENTRATION / MEAN CORPUSCULAR VOLUME / MONOCYTE / NEUTROPHIL / NUCLEATED RED BLOOD CELLS / PLATELET COUNT: tissue Blood; for ALANINE AMINOTRANSFERASE / ALBUMIN / ALKALINE PHOSPHATASE / ASPARTATE AMINOTRANSFERASE / BLOOD UREA NITROGEN / CARBON DIOXIDE / CHLORIDE / CHOLESTEROL / CREATINE PHOSPHOKINASE / CREATININE / GLUCOSE / LACTATE DEHYDROGENASE / LIPASE / PHOSPHORUS / SODIUM / TOTAL BILIRUBIN / TOTAL PROTEIN / URIC ACID: tissue Plasma
[1] = 450 mg/kg, 120 h, dose level Low, time 5 day
[2] = 1500 mg/kg, 72 h, dose level High, time 3 day
[3] = 1500 mg/kg, 120 h, dose level High, time 5 day

CC[C@H](C)C(=O)O[C@H]1C[C@@H](C)C=C2C=C[C@H](C)[C@H](CC[C@@H]3C[C@@H](O)CC(=O)O3)[C@H]21 [LOVASTATIN]
ABSOLUTE BASOPHIL [1]: 0 CELLS/uL
ABSOLUTE EOSINOPHIL [1]: 0 CELLS/uL
ABSOLUTE LYMPHOCYTE [1]: 8158 CELLS/uL
ABSOLUTE MONOCYTE [1]: 134 CELLS/uL
ABSOLUTE SEGMENTED NEUTROPHIL [1]: 1208 CELLS/uL
BASOPHIL [1]: 0%
EOSINOPHIL [1]: 0%
ERYTHROCYTE COUNT [1]: 6.46 x10E6/uL
HEMATOCRIT [1]: 40.17%
HEMOGLOBIN [1]: 15.27 G/DL
LEUKOCYTE COUNT [1]: 9.5 x10E3/uL
LYMPHOCYTE [1]: 86%
MEAN CORPUSCULAR HEMOGLOBIN [1]: 23.63 pg
MEAN CORPUSCULAR HEMOGLOBIN CONCENTRATION [1]: 38.03 G/DL
MEAN CORPUSCULAR VOLUME [1]: 62.2 fL
MONOCYTE [1]: 1.33%
NEUTROPHIL [1]: 12.67%
NUCLEATED RED BLOOD CELLS [1]: 0 /100WBC
PLATELET COUNT [1]: 1425.67 x10E3/uL
ALANINE AMINOTRANSFERASE [1]: 153 u/L
ALBUMIN [1]: 4.83 G/DL
ALKALINE PHOSPHATASE [1]: 635.67 u/L
ASPARTATE AMINOTRANSFERASE [1]: 360.33 u/L
BLOOD UREA NITROGEN [1]: 15.33 mg/dL
CARBON DIOXIDE [1]: 35.67 mmol/L
CHLORIDE [1]: 100.5 MEQ/L
CHOLESTEROL [1]: 28.67 mg/dL
CREATINE PHOSPHOKINASE [1]: 410.33 u/L
CREATININE [1]: 0.31 mg/dL
GLUCOSE [1]: 137.33 mg/dL
LACTATE DEHYDROGENASE [1]: 182.33 u/L
LIPASE [1]: 15.33 u/L
PHOSPHORUS [1]: 8.7 mg/dL
SODIUM [1]: 145.2 MEQ/L
TOTAL BILIRUBIN [1]: 0.23 mg/dL
TOTAL PROTEIN [1]: 6.1 G/DL
URIC ACID [1]: 0.5 mg/dL
ABSOLUTE BASOPHIL [2]: 0 CELLS/uL
ABSOLUTE EOSINOPHIL [2]: 21.67 CELLS/uL
ABSOLUTE LYMPHOCYTE [2]: 6143.33 CELLS/uL
ABSOLUTE MONOCYTE [2]: 201 CELLS/uL
ABSOLUTE SEGMENTED NEUTROPHIL [2]: 2134 CELLS/uL
BASOPHIL [2]: 0%
EOSINOPHIL [2]: 0.33%
ERYTHROCYTE COUNT [2]: 5.62 x10E6/uL
HEMATOCRIT [2]: 35.1%
HEMOGLOBIN [2]: 13.97 G/DL
LEUKOCYTE COUNT [2]: 8.5 x10E3/uL
LYMPHOCYTE [2]: 72%
MEAN CORPUSCULAR HEMOGLOBIN [2]: 24.9 pg
MEAN CORPUSCULAR HEMOGLOBIN CONCENTRATION [2]: 39.83 G/DL
MEAN CORPUSCULAR VOLUME [2]: 62.5 fL
MONOCYTE [2]: 2.33%
NEUTROPHIL [2]: 25.33%
NUCLEATED RED BLOOD CELLS [2]: 0 /100WBC
PLATELET COUNT [2]: 1031.67 x10E3/uL
ALANINE AMINOTRANSFERASE [2]: 318 u/L
ALBUMIN [2]: 4.3 G/DL
ALKALINE PHOSPHATASE [2]: 538.67 u/L
ASPARTATE AMINOTRANSFERASE [2]: 602.33 u/L
BLOOD UREA NITROGEN [2]: 15.33 mg/dL
CARBON DIOXIDE [2]: 30.33 mmol/L
CHLORIDE [2]: 98 MEQ/L
CHOLESTEROL [2]: 50 mg/dL
CREATINE PHOSPHOKINASE [2]: 490 u/L
CREATININE [2]: 0.37 mg/dL
GLUCOSE [2]: 141.67 mg/dL
LACTATE DEHYDROGENASE [2]: 851.33 u/L
LIPASE [2]: 10.33 u/L
PHOSPHORUS [2]: 10.3 mg/dL
SODIUM [2]: 142.63 MEQ/L
TOTAL BILIRUBIN [2]: 0.1 mg/dL
TOTAL PROTEIN [2]: 5.53 G/DL
URIC ACID [2]: 0.7 mg/dL
ABSOLUTE BASOPHIL [3]: 0 CELLS/uL
ABSOLUTE EOSINOPHIL [3]: 0 CELLS/uL
ABSOLUTE LYMPHOCYTE [3]: 8899 CELLS/uL
ABSOLUTE MONOCYTE [3]: 314.33 CELLS/uL
ABSOLUTE SEGMENTED NEUTROPHIL [3]: 2320 CELLS/uL
BASOPHIL [3]: 0%
EOSINOPHIL [3]: 0%
ERYTHROCYTE COUNT [3]: 6.78 x10E6/uL
HEMATOCRIT [3]: 41.27%
HEMOGLOBIN [3]: 15.53 G/DL
LEUKOCYTE COUNT [3]: 11.53 x10E3/uL
LYMPHOCYTE [3]: 76%
MEAN CORPUSCULAR HEMOGLOBIN [3]: 22.93 pg
MEAN CORPUSCULAR HEMOGLOBIN CONCENTRATION [3]: 37.63 G/DL
MEAN CORPUSCULAR VOLUME [3]: 60.93 fL
MONOCYTE [3]: 2.67%
NEUTROPHIL [3]: 21.33%
NUCLEATED RED BLOOD CELLS [3]: 0 /100WBC
PLATELET COUNT [3]: 1526.33 x10E3/uL
ALANINE AMINOTRANSFERASE [3]: 234.33 u/L
ALBUMIN [3]: 4.7 G/DL
ALKALINE PHOSPHATASE [3]: 440.67 u/L
ASPARTATE AMINOTRANSFERASE [3]: 648.33 u/L
BLOOD UREA NITROGEN [3]: 17 mg/dL
CARBON DIOXIDE [3]: 35.67 mmol/L
CHLORIDE [3]: 100.5 MEQ/L
CHOLESTEROL [3]: 55.33 mg/dL
CREATINE PHOSPHOKINASE [3]: 603 u/L
CREATININE [3]: 0.34 mg/dL
GLUCOSE [3]: 135 mg/dL
LACTATE DEHYDROGENASE [3]: 832.33 u/L
LIPASE [3]: 14.67 u/L
PHOSPHORUS [3]: 8.5 mg/dL
SODIUM [3]: 145.6 MEQ/L
TOTAL BILIRUBIN [3]: 0.2 mg/dL
TOTAL PROTEIN [3]: 6.33 G/DL
URIC ACID [3]: 0.63 mg/dL

— ChEMBL document CHEMBL3885881, “DrugMatrix”
